A short description of data set [1]: Fraction absorbed in cynomolgus monkey at 1 mg/kg, po. In kind it is ADME, organism-based, Macaca fascicularis. The settings on record: in vivo, read-out: Fabs. Set-up: dose 1 mg/kg, route oral.
Data set [2] is described as follows: Oral bioavailability in cynomolgus monkey at 1 mg/kg. In kind it is ADME, organism-based, Macaca fascicularis. Conditions: in vivo.
The next data set can be described thus: physchem. Conditions: buffer, pH 7.4.
Another data set can be described thus: in vitro. The settings on record: human, Caco-2.
In data set [3] the test system is Cynomolgus monkey. Description: AUC (0 to infinity) in cynomolgus monkey at 1 mg/kg, po. In kind it is ADME, organism-based, Macaca fascicularis, Plasma. On the set-up: time infinity, dose 1 mg/kg, route oral. Conditions: in vivo.
Data set [4] concerns Cynomolgus monkey. Description: AUC (0 to infinity) in cynomolgus monkey at 1 mg/kg, iv. In kind it is ADME, organism-based, Macaca fascicularis, Plasma. Set-up: time infinity, dose 1 mg/kg, route intravenous. Conditions: in vivo.
A short description of data set [5]: Tmax in cynomolgus monkey at 1 mg/kg, po. In kind it is ADME, organism-based, Macaca fascicularis. Set-up: dose 1 mg/kg, route oral. Conditions: in vivo.
Data set [6] is described as follows: Volume of distribution at steady state in cynomolgus monkey at 1 mg/kg, iv. In kind it is ADME, organism-based, Macaca fascicularis. Set-up: dose 1 mg/kg, route intravenous. Conditions: in vivo, read-out: Vdss.
Data set [7] is described as follows: Cmax in cynomolgus monkey at 1 mg/kg, po. In kind it is ADME, organism-based, Macaca fascicularis. Set-up: dose 1 mg/kg, route oral. The settings on record: in vivo.

We go through 15 molecules from ChEMBL document CHEMBL1145649, “Novel HCV NS5B polymerase inhibitors derived from 4-(1',1'-dioxo-1',4'-dihydro-1'lambda6-benzo[1',2',4']thiadiazin-3'-yl)-5-hydroxy-2H-pyridazin-3-ones: Part 4. Optimization of DMPK properties” (Bioorg Med Chem Lett, 2008).

For the molecule `CC(C)(C)CCn1nc(CC(C)(C)C)c(O)c(C2=NS(=O)(=O)c3cc(NS(C)(=O)=O)ccc3N2)c1=O`, in data set [1], the Fa was found to be 4%. Also, the bioavailability in data set [2] amounted to 4%. In the data set “physchem”, this molecule registered a solubility of over 100 µM. Besides, the apical-to-basolateral permeability (Papp A→B) at 10 µM in “in vitro” stood at 0.15 ×10⁻⁶ cm/s.
`CC(C)CCn1nc(CC2CCCC2)c(O)c(C2=NS(=O)(=O)c3cc(NS(C)(=O)=O)ccc3N2)c1=O`: in [1], the Fa is 18%. In addition, the bioavailability in data set [2] stood at 15%. For the same molecule, the AUC was determined as 370 ng·h/mL in the data set with Cynomolgus monkey [3] and 2540 ng·h/mL in the data set with Cynomolgus monkey [4]. In addition, in [5], the time to peak (Tmax) stood at 1.3 h. Further, in [6], the Vd was found to be 0.15 L/kg. The peak concentration (Cmax) in [7] amounted to 113 ng/mL.
Consider `CC(C)=Cc1nn(CCC(C)(C)C)c(=O)c(C2=NS(=O)(=O)c3cc(NS(C)(=O)=O)ccc3N2)c1O`, for which the Fa in data set [1] was found to be 2%. The bioavailability in data set [2] worked out at 2%. In the data set “physchem”, this molecule registered a solubility of over 100 µM. Also, the apical-to-basolateral permeability (Papp A→B) at 10 µM in “in vitro” stood at 1 ×10⁻⁶ cm/s.
Take `CN(c1ccc2c(c1)S(=O)(=O)N=C(c1c(O)c(-c3cccs3)nn(CCC(C)(C)C)c1=O)N2)S(C)(=O)=O`: in data set [1], the Fa was 5%. This molecule displayed a bioavailability in [2] of 3%. In the data set “physchem”, this molecule came in with a solubility of over 100 µM. In “in vitro”, this molecule displayed an apical-to-basolateral permeability (Papp A→B) at 10 µM of 0.01 ×10⁻⁶ cm/s.
Turning to `Cc1ccc(-c2nn(Cc3ccccc3)c(=O)c(C3=Nc4ccccc4S(=O)(=O)N3)c2O)s1`, the Fa in data set [1] amounted to 36%. Further, the values for the area under the curve (AUC) in the data set with Cynomolgus monkey [3] and in the data set on Cynomolgus monkey [4] were 3650 ng·h/mL and 10900 ng·h/mL, respectively. Also, the time to peak (Tmax) in data set [5] was 2 h. Besides, the Vd in data set [6] is 0.21 L/kg. The molecule further gave a Cmax in data set [7] of 673 ng/mL. This molecule also came in with a solubility in the data set “physchem” of over 80 µM.
`CC(C)CCn1nc(C(C)(C)C)c(O)c(C2=NS(=O)(=O)c3cc(NS(C)(=O)=O)ccc3N2)c1=O`: the Fa in data set [1] was 17%. The same molecule showed a bioavailability in data set [2] of 15%. For the same molecule, the exposure (AUC) was determined as 611 ng·h/mL in the data set with Cynomolgus monkey [3] and 3980 ng·h/mL in the data set on Cynomolgus monkey [4]. In addition, the time to peak (Tmax) in data set [5] was 1.5 h. Moreover, the Vd in data set [6] was determined as 0.17 L/kg. Besides, in data set [7], the Cmax worked out at 294 ng/mL. This molecule also yielded a solubility in the data set “physchem” of over 100 µM. For the same molecule, the Papp A→B at 10 µM in the data set “in vitro” is 0.58 ×10⁻⁶ cm/s.
Regarding `CC(C)CCn1nc(-c2cccs2)c(O)c(C2=NS(=O)(=O)c3cc(N(C)S(C)(=O)=O)ccc3N2)c1=O`, the Fa in [1] is 33%. In addition, the AUC in the data set on Cynomolgus monkey [3] was 72 ng·h/mL; in the data set with Cynomolgus monkey [4], 605 ng·h/mL. Besides, the Tmax in data set [5] came to 6 h. The Vd in [6] came out at 0.57 L/kg. Further, the concentration in data set [7] peaked (Cmax) at 11 ng/mL. The same molecule returned a solubility in “physchem” of over 100 µM.
As for `CC(C)(C)CCn1nc(CC2CCCC2)c(O)c(C2=Nc3ccc(NS(C)(=O)=O)cc3S(=O)(=O)N2)c1=O`, the Fa in data set [1] was found to be 18%. In [2], this molecule displayed a bioavailability of 10%. Besides, the AUC came out at 89 ng·h/mL in the data set on Cynomolgus monkey [3] and 851 ng·h/mL in the data set on Cynomolgus monkey [4]. Moreover, the Tmax in data set [5] worked out at 6 h. In addition, the Vd in data set [6] is 0.57 L/kg. In [7], this molecule displayed a maximum concentration (Cmax) of 13 ng/mL. In “physchem”, this molecule displayed a solubility of over 100 µM.
Take `CS(=O)(=O)Nc1ccc2c(c1)S(=O)(=O)N=C(c1c(O)c(C3=CCCC3)nn(CCC3CC3)c1=O)N2`: in data set [1], the Fa stood at 6%. In addition, the bioavailability in [2] was 4%. In the data set “physchem”, this molecule came in with a solubility of over 100 µM. In addition, the Papp A→B at 10 µM in “in vitro” was 0.59 ×10⁻⁶ cm/s.
For `CC(C)CCn1nc(CC2CC2)c(O)c(C2=NS(=O)(=O)c3cc(NS(C)(=O)=O)ccc3N2)c1=O`, in that order: 9%, 7%, over 100 µM and 0.49 ×10⁻⁶ cm/s.
The like results for `CC(C)CCn1nc(CC(C)(C)C)c(O)c(C2=NS(=O)(=O)c3cc(NS(C)(=O)=O)ccc3N2)c1=O` were, in that order, 8%, 6%, over 100 µM and 0.29 ×10⁻⁶ cm/s.
Turning to `CC(C)(C)CCn1nc(C2CC2)c(O)c(C2=Nc3ccc(NS(C)(=O)=O)cc3S(=O)(=O)N2)c1=O`, in [1], the Fa worked out at 5%. The bioavailability in [2] was determined as 4%. In “physchem”, this molecule had a solubility of over 50 µM. This molecule also displayed a Papp A→B at 10 µM in “in vitro” of 0.95 ×10⁻⁶ cm/s.
In the case of `CC(C)(C)CCn1nc(C2=CCCC2)c(O)c(C2=NS(=O)(=O)c3cc(NS(C)(=O)=O)ccc3N2)c1=O`, in data set [1], the Fa turned out to be 7%. Besides, the bioavailability in [2] was 4%.
For the molecule `CC(C)CCn1nc(-c2cccs2)c(O)c(C2=Nc3ccc(NS(C)(=O)=O)cc3S(=O)(=O)N2)c1=O`, the Fa in [1] amounted to 4%. For the same molecule, the AUC in the data set with Cynomolgus monkey [3] was 30 ng·h/mL; in the data set on Cynomolgus monkey [4], 1330 ng·h/mL. Further, in data set [5], the time of peak concentration (Tmax) was determined as 6.3 h. For the same molecule, the Vd in data set [6] came out at 0.18 L/kg. In addition, in data set [7], the peak level (Cmax) was 3.8 ng/mL. Moreover, the solubility in the data set “physchem” is over 100 µM.
With `CC(C)(C)Cc1nn(CCC2CC2)c(=O)c(C2=Nc3ccc(NS(C)(=O)=O)cc3S(=O)(=O)N2)c1O`, in data set [1], the Fa worked out at 7%. Also, the bioavailability in [2] turned out to be 6%. The molecule further displayed a solubility in the data set “physchem” of over 100 µM. In addition, the apical-to-basolateral permeability (Papp A→B) at 10 µM in the data set “in vitro” was determined as 0.7 ×10⁻⁶ cm/s.

What is called bioavailability is dose-corrected exposure relative to a reference, in per cent. The term solubility denotes how much of the substance goes into solution per volume. Broadly, the Papp A→B is the apparent permeability from the apical to the basolateral side of a cell layer. In general, AUC refers to the area under the concentration-time curve, a measure of exposure. By Tmax is commonly meant the time from dosing to the highest level. The Cmax is the highest concentration seen after dosing.
